{"source": "patent US6620822B1", "about": "“Fungicidal combinations of active substance” (priority 1999, dated 2003)", "type_in_all_cases": "in vivo", "key": {"Sphaerotheca fuliginea": {"test_system": "Sphaerotheca fuliginea", "experiment": "Sphaerotheca test (cucumber)/protective", "details": "protective, single active compound, evaluation 10 days after inoculation"}, "[1]": {"test_system": "Erysiphe graminis f.sp. hordei", "experiment": "Erysiphe test (barley)/curative", "details": "curative, single active compound, evaluation 7 days after inoculation"}, "Phytophthora infestans": {"test_system": "Phytophthora infestans", "details": "tomato, protective, single active compound, application rate 5 g/ha, evaluation 3 days after inoculation"}}}
{"smiles": "Fc1ccc(Oc2ccnc3cc(Cl)cc(Cl)c23)cc1", "note": "[(I), 5,7-dichloro-4-(4-fluoro-phenoxy)-quinoline]", "values": [{"measurement": "Efficacy in %", "setting": "Sphaerotheca fuliginea; application rate 5 g/ha", "result": 57, "unit": "%"}, {"measurement": "Efficacy in %", "setting": "Sphaerotheca fuliginea; application rate 10 g/ha", "result": 63, "unit": "%"}, {"measurement": "Efficacy in %", "setting": "[1]; application rate 6.25 g/ha", "result": 43, "unit": "%"}, {"measurement": "Efficacy in %", "setting": "[1]; application rate 25 g/ha", "result": 57, "unit": "%"}, {"measurement": "Efficacy in %", "setting": "Phytophthora infestans", "result": 4, "unit": "%"}]}
{"smiles": "Cc1ccc(C(C)NC(=O)C(NC(=O)OC(C)C)C(C)C)cc1", "note": "(stereo not drawn) [(VI)]", "values": [{"measurement": "Efficacy in %", "setting": "Sphaerotheca fuliginea; application rate 10 g/ha", "result": 0, "unit": "%"}]}
{"smiles": "CC1(C(=O)Nc2ccc(O)c(Cl)c2Cl)CCCCC1", "note": "[(V)]", "values": [{"measurement": "Efficacy in %", "setting": "Sphaerotheca fuliginea; application rate 10 g/ha", "result": 0, "unit": "%"}]}
{"smiles": "Cc1ccc(N(SC(F)(Cl)Cl)S(=O)(=O)N(C)C)cc1", "note": "[(III), N-dichloro-fluoro-methylthio-N′,N′-dimethyl-N-p-tolylsulfamide]", "values": [{"measurement": "Efficacy in %", "setting": "Sphaerotheca fuliginea; application rate 50 g/ha", "result": 0, "unit": "%"}]}
{"smiles": "CC1CNC(=S)[S][Zn][S]C(=S)N1", "note": "(stereo not drawn) [(IV), zinc propylene-1,2-bis-(dithiocarbamidate)]", "values": [{"measurement": "Efficacy in %", "setting": "Sphaerotheca fuliginea; application rate 50 g/ha", "result": 0, "unit": "%"}]}
{"smiles": "CC(C)(C)C(O)C(Oc1ccc(Cl)cc1)n1cncn1", "note": "(stereo not drawn) [(IIa), 1-(4-chloro-phenoxy)-3,3-dimethyl-1-(1,2,4-triazol-1-yl)-butan-2-ol]", "values": [{"measurement": "Efficacy in %", "setting": "Sphaerotheca fuliginea; application rate 5 g/ha", "result": 63, "unit": "%"}, {"measurement": "Efficacy in %", "setting": "[1]; application rate 25 g/ha", "result": 93, "unit": "%"}]}
{"smiles": "CC(C)(C)C(O)C(Oc1ccc(-c2ccccc2)cc1)n1cncn1", "note": "(stereo not drawn) [(IIb), 1-(4-phenyl-phenoxy)-3,3-dimethyl-1-(1,2,4-triazol-1-yl)-butan-2-ol]", "values": [{"measurement": "Efficacy in %", "setting": "Sphaerotheca fuliginea; application rate 10 g/ha", "result": 27, "unit": "%"}]}
